Series [1] is described as follows: Plasma exposure of Total KL1333, Part C patients with primary mitochondrial disease. The conditions noted are these: human, in vivo. From the text:
(§1) Part C will comprise a randomised, multiple-dose, single-group, placebo-controlled study. A total of 8 patients diagnosed with any mitochondrial disease will be enrolled in this part of the study. Part C may start after the dose selection conference has been completed for the final cohort of Part B, at a daily dose no higher than the highest well-tolerated dose in Part B.
It is planned for patients to receive study drug QD on Days 1 to 10. Dose levels, dose frequency, and dietary state will be confirmed following review of safety, tolerability, and PK data from Part B, and unless deemed very unfavourable for the conduct of the study, the patients will not be required to be fasting prior to dosing. Study drug will be administered by clinical site staff when the patients are resident at the clinical site or return for outpatient visits. On all other days, patients will record drug administration and any concomitant medications in a diary that will be provided to each patient. Diaries will be reviewed and checked for compliance during the outpatient visits and as part of the check-in procedures on Day 10. Clinical symptoms that occur while patients are not resident at the site will be collected by the site using standard adverse event (AE) reporting procedures. […]

Series [2] has as its system patients with primary mitochondrial disease. Briefly: Safety and tolerability in patients with primary mitochondrial disease (Part C). It counts as in vivo. The conditions noted are these: multiple oral QD doses of 50 mg for 10 days.
Text: as §1
Two patients will be initially dosed, with 1 patient receiving KL1333 and 1 patient receiving placebo. If there are no safety or tolerability concerns in these patients following the Day 4 visit, the remaining 6 patients, with 5 patients receiving KL1333 and 1 patient receiving placebo, will be enrolled on a rolling basis. In the event there are safety concerns following completion of the 2 sentinel patients without meeting stopping criteria, the Sponsor may add intermediate cohorts if the safety evaluation in intermediate cohorts will be needed. The dosing schedule of intermediate cohorts will be the same as that of the planned cohort. The schedule of safety assessments of intermediate cohorts will be the same as that of the planned cohort as a general rule. Whether or not to add safety assessments in the intermediate cohorts will be determined by the Sponsor.
It is planned for patients to receive study drug QD on Days 1 to 10. […]

Series [3] shares this test system. Put plainly: NeuroQoL Short Form Fatigue in primary mitochondrial disease patients. It counts as in vivo, human.
For series [4] the test system is unchanged. Briefly: Daily Fatigue Impact Scale (D-FIS) in primary mitochondrial disease patients. In kind it is in vivo, human.
The test system is the same in series [5]. Put plainly: 30 Second Sit-to-Stand Test in primary mitochondrial disease patients. It counts as in vivo, human. The note with it: 50 mg QD for 10 days, versus placebo; number of sit to stand repetitions.
For series [6] the test system is unchanged. Briefly: Clinical outcome assessments overall in primary mitochondrial disease patients. In kind it is in vivo, human.
Series [7] has as its system lactate/pyruvate ratio, serum niacinamide, serum xanthine. Briefly: Blood and serum biomarkers in PMD patients. It counts as in vivo, human. Here is the method:
FIG. 7. Lactate/Pyruvate ratio in PMD patients treated daily with 50 mg KL1333 (n=6) or placebo (n=2) for 10 days.
FIG. 8. Serum niacinamide is an early biomarker of response to KL1333 treatment. PMD patients were treated with 50 mg KL1333 QD (n=6) or placebo (n=2). The data are expressed as the ratio of the niacinamide concentrations in Day 2 and Day 1 serum samples.
FIG. 9. Serum xanthinse is an early biomarker of response to KL1333 treatment. PMD patients were treated with 50 mg KL1333 QD (n=6) or placebo (n=2). The data are expressed as the ratio of the xanthine concentrations in Day 2 and Day 1 serum samples.
For Parts B through D, blood biomarker assessments will include: • nicotinamide adenine dinucleotide (oxidized form; NAD^+)/nicotinamide adenine dinucleotide (reduced form; NADH) concentrations and ratio • fibroblast growth factor-21 (FGF21) • growth/differentiation factor-15 (GDF15) • lactate/pyruvate concentrations and ratio.

Series [8] addresses NQO1 (Homo sapiens, UniProt P15559). Briefly: NQO1 substrate activity. In kind it is biochemical. The note with it: compared with other NQO1 active compounds (ie, idebenone). The source says:
KL1333 is a novel compound under development for primary mitochondrial diseases. KL1333 acts as a substrate for NAD(P)H:dehydrogenase [quinone]1 (NQO1), which produces nicotinamide adenine dinucleotide (oxidized form; NAD^+) by transferring 2 electrons to KL1333 using nicotinamide adenine dinucleotide (reduced form; NADH) as a cofactor. KL1333 transfers these electrons to the mitochondrial electron transport system, directly promoting ATP production. Additionally, the elevated NAD^+ levels lead to activation of mitochondrial biogenesis pathways, such as sirtuin 1 (SIRT1), 5′-adenosine monophosphate-activated protein kinase (AMPK), and peroxisome proliferator-activated receptor gamma coactivator 1-alpha (PGC-1α), thereby improving mitochondrial function.

Series [9] relates to cells derived from patients with MELAS. Briefly: Cellular models, including cells derived from patients with MELAS. The conditions noted are these: including MELAS patient-derived cells. In kind it is cell-based, human.
Series [10] is described as follows: Drug substance properties. It counts as physicochemical. The note with it: crystalline powder. From the text:
KL-1333 is a drug substance with a molecular mass of 240.26 g/mol. […] It is manufactured via multi-step chemical synthesis.

Setting [11] is: 50 mg once daily, 10 days of dosing, PMD patients.
[12] abbreviates: 50 mg QD, after one day of treatment (Day 2/Day 1).

SMILES strings stand for the structures.

We go through 1 compound from patent US20240238255A1, “KL1333 FOR USE IN MEDICINE” (ABLIVA AB, priority 2021, published 2024).

Chain of NQO1 (P15559 whole entry, species assumed): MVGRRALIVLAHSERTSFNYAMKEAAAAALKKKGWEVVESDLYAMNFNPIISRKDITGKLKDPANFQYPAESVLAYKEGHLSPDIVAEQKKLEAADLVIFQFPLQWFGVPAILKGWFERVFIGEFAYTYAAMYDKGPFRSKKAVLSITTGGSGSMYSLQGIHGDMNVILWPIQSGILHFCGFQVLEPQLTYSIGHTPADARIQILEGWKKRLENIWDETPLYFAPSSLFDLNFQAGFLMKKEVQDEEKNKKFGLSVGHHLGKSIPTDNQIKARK

As to `CC(C)c1nc2c([nH]1)C(=O)C(=O)c1ccccc1-2` [KL1333], the “pharmacokinetics profile, healthy volunteers versus patients” value in series [1] is “similar”. Also, in series [2], the tolerability entry was “well tolerated”. For the same compound, the “NeuroQoL Short Form Fatigue, mean change” value in [3] (50 mg QD for 10 days, baseline to day 10, n=6 versus placebo n=2) is on record as “improvement”. Also, the “NeuroQol fatigue change from baseline, high exposure group versus placebo” value in [3] (50 mg QD for 10 days, high exposure patients, Kruskal-Wallis test) is “statistically significant better than placebo”. Also, the “correlation of NeuroQol SF Fatigue raw score change with Total KL1333 Ctrough” value in series [3] (change from baseline to day 10, Ctrough at day 10) is “statistically significant correlation”. The “Daily Fatigue Impact Scale, mean change” value in series [4] (50 mg QD for 10 days, versus placebo, reduction of fatigue impacts on daily activities) was “greater improvement”. The “correlation of DFIS change with Total KL1333 Ctrough” value in series [4] (change from day-1 to day 10, Ctrough at day 10) is on record as “statistically significant correlation”. Also, in series [5], the “30s Sit-to-stand test, mean change” value was “greater improvement”. Further, in series [6] (setting [11]), the fatigue entry is listed as “marked improvement in fatigue” and the muscle strength entry is “marked improvement in muscle strength”. For the same compound, in [6] (clinical outcome assessments of primary mitochondrial disease patients), the “combatting fatigue and muscle weakness” value was “effective”. In series [7] (setting [12]), the serum niacinamide entry is recorded as “increased” and the serum xanthine entry is recorded as “increased”. Further, the “lactate/pyruvate ratio, Day 10 compared to Day 1” value in series [7] (50 mg daily for 10 days (n=6), not seen in placebo) is “decreased”. For the same compound, the “potency as substrate to NQO1” value in series [8] was “more potent substrate to NQO1 than other NQO1 active compounds”. Moreover, in series [9], the ATP entry is listed as “increased ATP”; the “NAD+” value was “increased NAD^+”; the ROS entry was “decreased ROS”; the “SIRT1, AMPK and PGC-1α activation” value is “activation of SIRT1, AMPK, and PGC-1α”. In series [9], the lactic acid result is given as “decreased lactic acid” and the “mitochondrial oxidative phosphorylation function” value was “improved mitochondrial oxidative phosphorylation function”. Besides, in series [10], the hygroscopicity entry is “non-hygroscopic” and the solubility in water result is “practically insoluble”.
